The record followed here is US7888527B2 (University of Virginia Patent Foundation, priority 2004, dated 2011).

The target in data set [1] is T1, human S1P1 receptor (Homo sapiens, UniProt P21453). As to the kind of experiment: [γ-35S]GTP binding assay, HEK293T membranes (agonism and Schild antagonism). It counts as biochemical. On the set-up: expressed in transfected cells; host or cells: HEK293T, transient transfection; membranes; key to Schild analysis flag on pKb S1P1: *: Based on Schild analysis, the antagonism observed was not competitive. Particulars: for Kb: read-out: pKb S1P1 (converted); for Agonist efficacy class S1P1: relative to S1P Emax. From the text:
(§1) The appropriate receptor plasmid DNA (encoding human S1P1, human S1P2, human S1P3, human S1P4, human S1P5, human LPA1, human LPA2 or human LPA3 receptors) is mixed with equal amounts of expression plasmids encoding human Gi2α (for S1P3, a mutated (C352F) rat Gi2α is used), cow β1, and cow γ2 proteins, and these DNAs are used to transfect monolayers of HEK293T cells (where ‘T’ indicates expression of the SV-40 virus large T antigen) using the calcium phosphate precipitate method (7). After about 60 hours, cells are harvested, membranes prepared, aliquoted, and stored at −70° C. until use (8).
(§2) The [γ-^35S]GTP binding assay is performed as described previously (8). Membranes containing 1-5 μg of protein are incubated in 0.1 ml of binding buffer (in mM: HEPES/50, NaCl/100, MgCl2/10, pH 7.5) containing 5 μg of saponin, 10 μM GDP, 0.1 nM [γ-^35S]GTP (1200 Ci/mmol), and indicated lipid(s) for 30 min at 30° C. and collected using a Brandel Cell Harvester (Gaithersburg, Md.). Samples are then analyzed for bound radionuclide.
(§3) Briefly, nonlinear analysis of the best-fit line generated by plotting the negative log of the EC50 values obtained from agonist dose-response curves, in the absence and presence of varying concentrations of antagonist, was plotted against the concentration of antagonist to give the Kb value.
(§4) Statistical Analysis. The EC50 and IC50 values for all dose response curves were determined by nonlinear regression analysis of all data using the Graphpad Prism© program. The error associated with the data collected is reported as the standard error of the mean (S.E.M).

For data set [2], the target named is T1, human S1P1 receptor. Kind of data set: Cell migration assay, T24 cells transfected stably with human S1P1 receptor. Particulars: 50 nM antagonist. On the set-up: expressed in transfected cells. It counts as cell-based. The procedure: (§5) […] monolayers are co-transfected with the human S1P1, S1P2, S1P3 receptor encoding DNAs and the pIRESpuro2 plasmid DNA (Clontech, San Jose, Calif.,) using either Lipofectamine 2000 (Invitrogen, Carlsbad, Calif.) or FuGENE 6 (Roche Applied Science, Indianapolis, Ind.). Clonal populations expressing the puromycin acetyltransferase gene are selected by addition of puromycin (Sigma-Aldrich, St. Louis, Mo.) to the culture media. T24 cells are grown in monolayers at 37° C. in a 5% CO2/95% air atmosphere in growth media consisting of: 95% DMEM/F-12 medium and 10% charcoal/dextran stripped FBS.
Cell migration assays are performed using modified Boyden chambers (tissue culture-treated, 24-mm diameter, 10-μm thickness, 8-μm pores, Transwell®; Costar Corp., Cambridge, Mass.) containing polycarbonate membranes that are coated on the underside with 0.1% gelatin. The underside of the polycarbonate membranes is rinsed once with migration media (DMEM/F12 without Phenol Red and 0.1% fatty acid free BSA) and then immersed in the lower chamber containing two milliliters of migration media. T24 cells transfected stably with human S1P1 receptor DNA were grown in DMEM/F12 media containing charcoal/dextran stripped FBS and 10 μg/ml puromycin to 100% confluence in 150×2.5 mm tissue culture plates and serum starved at least 12 hours. Serum-starved cells were removed from culture dishes with 10× Trypsin-EDTA (Hanks' balanced salt solution containing 5 mM EDTA and 25 mM HEPES, pH 7.2, and 0.1% trypsin; Invitrogen, San Diego, Calif.), suspended in migration buffer and collected by centrifugation at 130×g for 5 minutes. The supernatant fluid was removed by aspiration and cell pellet resuspended in migration media (10^6 cells/ml). […] The non-migrating cells in the upper chamber were removed by aspiration and the migratory cells attached to the bottom surface of the membrane were isolated by incubation in 10× Trypsin-EDTA for 1 min at room temperature and gently tapping the plate to dislodge cells from the membrane. The mass of migratory cells per membrane was evaluated by combining 100 μl of cell suspension with an equal volume of CyQuant dye solution (3.0 ml of 2× lysis buffer and 15 μl CyQuant dye), and the resulting fluorescence quantified using the FlexStation™ fluorimeter (Molecular Devices, Menlo Park, Calif.). Each determination represents the average of two individual migration chambers. […] The monolayer was washed three times with phosphate buffered saline and processed immediately for the cell migration assay, as described above.

Data set [3] concerns the target T1, human S1P1 receptor. Kind of data set: [32P]S1P binding assay, HEK293T membranes. On the set-up: expressed in transfected cells; host or cells: HEK293T, transient transfection; membranes. Particulars: read-out: pKi S1P1 (converted). The procedure: (§6) [^32P]-S1P was prepared by incubating sphingosine and [γ-^32P]ATP with cell lysate from HEK293T cells transiently transfected with human sphingosine kinase type 2 DNA. The 200 μl reaction contained 0.025 mM sphingosine, 1 mCi [γ-^32P]ATP (7000 Ci/mmol) and kinase buffer (in mM: Mg(C2H3O2)2 (in 50 mM Tris, pH 7.5)/10, NaF/10, and semicarbizide/2). The reaction was initiated by the addition of 20 μg of cell lysate and incubated at 37° C. for at least 30 minutes. […] The organic layer was isolated and the extraction procedure repeated two additional times with the remaining aqueous fraction. The combined organic fractions were dried under a stream of nitrogen gas and resuspended in aqueous 0.1% fatty acid free BSA.
(§7) Bound ligand was separated from free ligand by rapid filtration and analyzed in a liquid scintillation counter.
as §4

For another data set, the target named is T2, human S1P5 receptor (Homo sapiens, UniProt Q9H228).
T2 construct: expressed in transfected cells; host or cells: HEK293T, transient transfection; membranes
Kind of data set: [γ-35S]GTP binding assay, HEK293T membranes. The data set is classed as biochemical. Particulars: for EC50: -log molar concentration giving 50% of maximal [γ-35S]GTP binding, ± S.E.M., read-out: pEC50 S1P5 (converted); for Agonist efficacy class S1P5: relative to S1P Emax.
Text: as §1, §2, §4

In another data set the target is T3, human S1P4 receptor (Homo sapiens, UniProt O95977).
T3 construct: expressed in transfected cells; host or cells: HEK293T, transient transfection; membranes
T3 sequence (O95977 1-384): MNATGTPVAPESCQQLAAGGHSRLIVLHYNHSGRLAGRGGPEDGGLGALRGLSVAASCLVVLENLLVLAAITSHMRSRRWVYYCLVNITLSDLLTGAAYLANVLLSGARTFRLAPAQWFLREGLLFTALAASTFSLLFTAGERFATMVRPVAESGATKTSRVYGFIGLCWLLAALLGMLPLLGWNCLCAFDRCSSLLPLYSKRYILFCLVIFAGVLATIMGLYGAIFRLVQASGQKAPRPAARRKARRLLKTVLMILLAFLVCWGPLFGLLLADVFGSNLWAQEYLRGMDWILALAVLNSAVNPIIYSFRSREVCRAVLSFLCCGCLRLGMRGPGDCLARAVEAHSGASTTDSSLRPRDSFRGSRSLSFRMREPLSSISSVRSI
Kind of data set: [γ-35S]GTP binding assay, HEK293T membranes. It counts as biochemical. Particulars: -log molar concentration giving 50% of maximal [γ-35S]GTP binding; ± S.E.M.; read-out: pEC50 S1P4 (converted).
Text: as §1, §2, §4

The next data set has as its target T4, S1P2 receptor (Homo sapiens, UniProt O95136).
T4 construct: expressed in transfected cells; host or cells: HEK293T, transient transfection; membranes
Kind of data set: [γ-35S]GTP binding assay, HEK293T membranes. It counts as biochemical. Particulars: -log molar concentration giving 50% of maximal [γ-35S]GTP binding; ± S.E.M.; read-out: pEC50 S1P2 (converted).
Text: as §1, §2, §4

Data set [4] addresses T5, human S1P3 receptor (Homo sapiens, UniProt Q99500). Kind of data set: [γ-35S]GTP binding assay, HEK293T membranes (agonism and Schild antagonism). The settings on record: for Kb: read-out: pKb S1P3 (converted); for Agonist efficacy class S1P3: relative to S1P Emax. On the set-up: expressed in transfected cells; host or cells: HEK293T, transient transfection; membranes; key to Schild analysis flag on pKb S1P3: *: Based on Schild analysis, the antagonism observed was not competitive. It counts as biochemical.
Text: as §1, §2, §3, §4

Data set [5] concerns the target T5, human S1P3 receptor. Kind of data set: [32P]S1P binding assay, HEK293T membranes. On the set-up: expressed in transfected cells; host or cells: HEK293T, transient transfection; membranes. The settings on record: for Ki: read-out: pKi S1P3 (converted). As to the method: as §6, §7, §4
Data set [6] concerns the target T5, human S1P3 receptor. As to the kind of experiment: Intracellular calcium mobilization, T24 cells transfected stably with human S1P3 receptor. The data set is classed as cell-based. On the set-up: expressed in transfected cells. The settings on record: T24-S1P3 cells versus wild-type T24 cells. The procedure:
as §5
A FlexStation™ fluorimeter (Molecular Devices, Menlo Park, Calif.) was used to measure intracellular calcium in native T24 cells and T24 cells transfected stably with either human S1P2 or human S1P3 receptor DNA. Cells were seeded (˜50,000 cells/well) in 96-well, clear bottom black microplates (Corning Costar Corp.) and left overnight at 37° C. The cells were dye-loaded with 4 μM Fluo-4AM ester in a loading buffer (Hank's Balanced Salt Solution, […], containing 20 mM HEPES, 0.1% fatty acid free BSA, and 2.5 mM probenecid) for 30 minutes at 37° C. After washing cell monolayers three times with phosphate buffered saline, loading buffer was added and the cells exposed to sets of compounds for 3 minutes at 25° C. in the FlexStation™. In all cases, each concentration of every compound was tested in at least triplicate. […] The cells were washed with phosphate buffered saline and exposed to compounds immediately, as described above.
as §3
On the technique in general: A change in cytosolic calcium serves as a functional read-out for many receptors and channels.

Data set [7] is described as follows: Metabolic stability in biologic systems (mouse). The data set is classed as in vivo. The settings on record: in a mouse.
The subject of the next data set is S1P receptors. Kind of data set: Antagonist properties (potency, S1P receptor type selectivity) compared with VPC23019.

T5 sequence (Q99500 whole entry): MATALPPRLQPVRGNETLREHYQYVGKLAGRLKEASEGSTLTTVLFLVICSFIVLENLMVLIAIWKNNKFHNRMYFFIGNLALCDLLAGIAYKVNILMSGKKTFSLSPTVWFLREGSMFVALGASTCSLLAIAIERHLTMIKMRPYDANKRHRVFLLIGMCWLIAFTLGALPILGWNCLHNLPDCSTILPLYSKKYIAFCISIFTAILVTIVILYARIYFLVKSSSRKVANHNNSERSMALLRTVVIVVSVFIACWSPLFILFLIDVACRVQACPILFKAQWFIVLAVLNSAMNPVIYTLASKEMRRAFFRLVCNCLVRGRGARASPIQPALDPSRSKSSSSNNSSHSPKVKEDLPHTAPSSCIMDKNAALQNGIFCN
T4 sequence (O95136 whole entry): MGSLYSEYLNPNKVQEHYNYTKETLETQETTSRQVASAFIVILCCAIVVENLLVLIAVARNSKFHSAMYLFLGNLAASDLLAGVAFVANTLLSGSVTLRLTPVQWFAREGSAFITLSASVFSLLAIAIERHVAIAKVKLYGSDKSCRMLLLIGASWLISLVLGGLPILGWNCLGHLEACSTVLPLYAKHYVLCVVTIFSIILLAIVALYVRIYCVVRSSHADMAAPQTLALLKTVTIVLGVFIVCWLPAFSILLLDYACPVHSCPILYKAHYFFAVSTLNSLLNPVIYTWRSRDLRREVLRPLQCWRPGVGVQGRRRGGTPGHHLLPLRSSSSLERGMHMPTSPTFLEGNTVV
T2 sequence (Q9H228 whole entry): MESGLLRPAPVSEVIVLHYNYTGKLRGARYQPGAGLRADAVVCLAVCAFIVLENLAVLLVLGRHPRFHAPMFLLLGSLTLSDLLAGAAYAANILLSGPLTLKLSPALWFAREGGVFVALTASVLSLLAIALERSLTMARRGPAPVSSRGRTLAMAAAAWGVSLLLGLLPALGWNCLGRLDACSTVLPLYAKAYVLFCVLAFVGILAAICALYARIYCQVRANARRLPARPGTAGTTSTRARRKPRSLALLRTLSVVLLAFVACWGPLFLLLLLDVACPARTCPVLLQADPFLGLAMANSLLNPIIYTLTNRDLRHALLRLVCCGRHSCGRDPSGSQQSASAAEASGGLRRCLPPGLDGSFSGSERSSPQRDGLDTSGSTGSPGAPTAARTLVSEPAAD
T1 sequence (P21453 whole entry): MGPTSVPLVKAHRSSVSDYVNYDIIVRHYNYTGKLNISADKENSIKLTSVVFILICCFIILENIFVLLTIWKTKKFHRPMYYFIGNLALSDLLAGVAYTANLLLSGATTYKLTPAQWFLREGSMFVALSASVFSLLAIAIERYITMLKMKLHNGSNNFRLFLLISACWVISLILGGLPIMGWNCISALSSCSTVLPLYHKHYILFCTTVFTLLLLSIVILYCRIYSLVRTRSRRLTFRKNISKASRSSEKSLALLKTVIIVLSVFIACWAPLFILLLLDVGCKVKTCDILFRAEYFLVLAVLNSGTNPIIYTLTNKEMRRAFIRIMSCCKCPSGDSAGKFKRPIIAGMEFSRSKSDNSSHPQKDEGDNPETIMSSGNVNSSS

`CCCCCCc1cccc(NC(=O)[C@H](N)COP(=O)(O)O)c1` [VPC23031]: at human S1P1 receptor [1], the Kb was 135 nM and the “Agonist efficacy class S1P1” value is “na (no agonist activity (<10% of S1P Emax))”. At human S1P1 receptor [2], the “Blockade of VPC22277 (10 nM)-induced migration” value (shortened to “Blockade of VPC22277”) is listed as “Blockade”. Besides, at human S1P1 receptor [3], the Ki is 61.7 nM. In addition, at human S1P5 receptor, the EC50 is 135 nM and the “Agonist efficacy class S1P5” value was “(wpa) (weak partial agonist activity (10-50% of S1P Emax))”. The EC50 on human S1P4 receptor is 1100 nM. For the same compound, the EC50 at S1P2 receptor was greater than 10000 nM. For the same compound, on human S1P3 receptor [4], the “Schild analysis flag on pKb S1P3” value is “*”, the Kb was 10500 nM and the “Agonist efficacy class S1P3” value is given as “na (no agonist activity (<10% of S1P Emax))”.
Regarding `CCCCCCCCCCCCC/C=C/[C@@H](O)[C@@H](N)COP(=O)(O)O` [Compound S1P, Sphingosine 1-phosphate, reference compound], the EC50 on human S1P1 receptor [1] (-log molar concentration giving 50% of maximal [γ-35S]GTP binding, ± S.E.M., read-out: pEC50 S1P1 (converted)) is 4.07 nM; at human S1P4 receptor it was 155 nM; at human S1P3 receptor [4] (-log molar concentration giving 50% of maximal [γ-35S]GTP binding, ± S.E.M., read-out: pEC50 S1P3 (converted)) it was 2.24 nM. Further, the values for the Ki on human S1P1 receptor [3] and on human S1P3 receptor [5] were 1.1 nM and 7.59 nM, respectively. The “Calcium mobilization by compound alone” value at human S1P3 receptor [6] is on record as “dose-dependent calcium mobilization was observed”.
In the case of `CCCCCCCc1cccc(NC(=O)[C@H](N)COP(=O)(O)O)c1` [VPC25239], on human S1P1 receptor [1], the “Schild analysis flag on pKb S1P1” value is “*”, the Kb is 562 nM and the “Agonist efficacy class S1P1” value was “na (no agonist activity (<10% of S1P Emax))”. The “Blockade of VPC22277” value at human S1P1 receptor [2] is “Blockade”. Also, the Ki at human S1P1 receptor [3] is 13.5 nM. Also, at human S1P3 receptor [5], the “Potency at the S1P3 receptor relative to lead compound VPC23019” value is recorded as “one log order more potent” and the Ki is 97.7 nM. Also, on human S1P5 receptor, the EC50 is 11.5 nM and the “Agonist efficacy class S1P5” value is “(pa) (partial agonist activity (50-85% of S1P Emax))”. In addition, on human S1P4 receptor, the EC50 was 166 nM. Further, the EC50 at S1P2 receptor is greater than 10000 nM. For the same compound, at human S1P3 receptor [4], the Kb was 1410 nM and the “Agonist efficacy class S1P3” value was “na (no agonist activity (<10% of S1P Emax))”.
With `CCCCCCCCc1ccccc1NC(=O)[C@H](N)COP(=O)(O)O` [VPC23089], the figures for the Kb at human S1P1 receptor [1] and on human S1P3 receptor [4] were 490 nM and 437 nM, respectively. Also, the “Agonist efficacy class S1P1” value on human S1P1 receptor [1] is “na (no agonist activity (<10% of S1P Emax))”. Further, the “Blockade of VPC22277” value on human S1P1 receptor [2] is “Blockade”. Also, the figures for the Ki at human S1P1 receptor [3] and on human S1P3 receptor [5] were 891 nM and 1580 nM, respectively. Also, the EC50 is greater than 10000 nM on human S1P5 receptor, 851 nM on human S1P4 receptor and greater than 10000 nM on S1P2 receptor. Further, the “Schild analysis flag on pKb S1P3” value on human S1P3 receptor [4] is reported as “*”. Further, on human S1P3 receptor [4], the “Agonist efficacy class S1P3” value is on record as “na (no agonist activity (<10% of S1P Emax))”.
In the case of `CCCCCCCCc1cccc(NC(=O)[C@H](N)CCP(=O)(O)O)c1` [VPC44116], in [7], the “Metabolic stability in biologic systems” value is recorded as “at least 18 hours”. In addition, the “Antagonist properties (potency, S1P receptor type selectivity) versus VPC23019” value with S1P receptors is “indistinguishable from VPC23019”.
